Data: the NIST ThermoML archive (doi:10.1021/acs.jced.9b00062)

Key:
[1] = for Normal melting temperature: DTA
[2] = Molar enthalpy of transition or fusion; details: Crystal; DSC

COc1c(Br)cc(Br)cc1Br [2,4,6-tribromoanisole]
[1]
Details | vapor or sublimation pressure [kPa]
330.66 K, Crystal, Closed cell (Static) method | 0.00284
332.63 K, Crystal, Closed cell (Static) method | 0.00349
334.5 K, Crystal, Closed cell (Static) method | 0.0042
336.57 K, Metastable liquid, Closed cell (Static) method | 0.00889
336.63 K, Crystal, Closed cell (Static) method | 0.0051
338.58 K, Crystal, Closed cell (Static) method | 0.00623
338.61 K, Metastable liquid, Closed cell (Static) method | 0.01033
340.54 K, Crystal, Closed cell (Static) method | 0.00747
340.57 K, Metastable liquid, Closed cell (Static) method | 0.01173
342.54 K, Metastable liquid, Closed cell (Static) method | 0.01369
342.55 K, Crystal, Closed cell (Static) method | 0.00915
344.5 K, Crystal, Closed cell (Static) method | 0.01086
344.5 K, Metastable liquid, Closed cell (Static) method | 0.01549
346.47 K, Crystal, Closed cell (Static) method | 0.01317
346.48 K, Metastable liquid, Closed cell (Static) method | 0.01786
348.43 K, Crystal, Closed cell (Static) method | 0.01563
348.5 K, Metastable liquid, Closed cell (Static) method | 0.02061
350.42 K, Crystal, Closed cell (Static) method | 0.01881
350.43 K, Metastable liquid, Closed cell (Static) method | 0.02345
352.4 K, Crystal, Closed cell (Static) method | 0.0224
352.41 K, Metastable liquid, Closed cell (Static) method | 0.02697
354.32 K, Crystal, Closed cell (Static) method | 0.0266
354.42 K, Metastable liquid, Closed cell (Static) method | 0.03065
356.36 K, Metastable liquid, Closed cell (Static) method | 0.03485
356.37 K, Crystal, Closed cell (Static) method | 0.03175
358.31 K, Metastable liquid, Closed cell (Static) method | 0.03946
360.25 K, Metastable liquid, Closed cell (Static) method | 0.04472
362.27 K, Closed cell (Static) method, Liquid | 0.05049
364.24 K, Closed cell (Static) method, Liquid | 0.05678
366.22 K, Closed cell (Static) method, Liquid | 0.06459
368.15 K, Closed cell (Static) method, Liquid | 0.07257
370.19 K, Closed cell (Static) method, Liquid | 0.08197
372.11 K, Closed cell (Static) method, Liquid | 0.09183
374.05 K, Closed cell (Static) method, Liquid | 0.1023
376.07 K, Closed cell (Static) method, Liquid | 0.1152
377.95 K, Closed cell (Static) method, Liquid | 0.1277
379.95 K, Closed cell (Static) method, Liquid | 0.1426
381.85 K, Closed cell (Static) method, Liquid | 0.1595
383.82 K, Closed cell (Static) method, Liquid | 0.177
385.79 K, Closed cell (Static) method, Liquid | 0.1958
387.78 K, Closed cell (Static) method, Liquid | 0.2203
389.79 K, Closed cell (Static) method, Liquid | 0.2436
391.72 K, Closed cell (Static) method, Liquid | 0.2676

Details | Normal melting temperature [°C]
[1], Crystal | 86.29

Details | Molar enthalpy of transition or fusion [kcal/mol]
[2] | 5.71

COc1c(Cl)cc(Cl)cc1Cl [2,4,6-trichloroanisole]
[1]
Details | vapor or sublimation pressure [kPa]
297.11 K, Crystal, Closed cell (Static) method | 0.00239
300.13 K, Crystal, Closed cell (Static) method | 0.00337
303.1 K, Crystal, Closed cell (Static) method | 0.00462
306.06 K, Crystal, Closed cell (Static) method | 0.00649
309.01 K, Crystal, Closed cell (Static) method | 0.00877
311.98 K, Crystal, Closed cell (Static) method | 0.01199
315.2 K, Crystal, Closed cell (Static) method | 0.01642
317.95 K, Crystal, Closed cell (Static) method | 0.02189
319.65 K, Metastable liquid, Closed cell (Static) method | 0.03551
320.87 K, Crystal, Closed cell (Static) method | 0.02895
322.82 K, Metastable liquid, Closed cell (Static) method | 0.04391
323.91 K, Crystal, Closed cell (Static) method | 0.03921
325.77 K, Metastable liquid, Closed cell (Static) method | 0.05384
326.89 K, Crystal, Closed cell (Static) method | 0.05174
328.77 K, Metastable liquid, Closed cell (Static) method | 0.06611
329.85 K, Crystal, Closed cell (Static) method | 0.06647
331.73 K, Metastable liquid, Closed cell (Static) method | 0.0803
334.71 K, Closed cell (Static) method, Liquid | 0.09766
337.68 K, Closed cell (Static) method, Liquid | 0.118
340.63 K, Closed cell (Static) method, Liquid | 0.1424
343.63 K, Closed cell (Static) method, Liquid | 0.1712
346.05 K, Closed cell (Static) method, Liquid | 0.1971
348.6 K, Closed cell (Static) method, Liquid | 0.2292
351.58 K, Closed cell (Static) method, Liquid | 0.2724
354.51 K, Closed cell (Static) method, Liquid | 0.3225
356.47 K, Closed cell (Static) method, Liquid | 0.3593
359.37 K, Closed cell (Static) method, Liquid | 0.4214
362.38 K, Closed cell (Static) method, Liquid | 0.4943
365.32 K, Closed cell (Static) method, Liquid | 0.5801
368.31 K, Closed cell (Static) method, Liquid | 0.6729

Details | Normal melting temperature [°C]
[1], Crystal | 59.32

Details | Molar enthalpy of transition or fusion [kcal/mol]
[2] | 5.35

Oc1c(Br)cc(Br)cc1Br [2,4,6-tribromophenol]
Details | mass density [kg/m3]
[1], 150 K, 101.33 kPa, Crystal, X-ray diffraction | 2712

[1]
Details | vapor or sublimation pressure [kPa]
307.16 K, Crystal, Calculated from knudsen effusion weight loss | 0.000107
309.36 K, Crystal, Calculated from knudsen effusion weight loss | 0.000141
311.2 K, Crystal, Calculated from knudsen effusion weight loss | 0.000177
313.15 K, Crystal, Calculated from knudsen effusion weight loss | 0.000221
315.37 K, Crystal, Calculated from knudsen effusion weight loss | 0.000286
317.19 K, Crystal, Calculated from knudsen effusion weight loss | 0.000358
319.15 K, Crystal, Calculated from knudsen effusion weight loss | 0.00044
321.33 K, Crystal, Calculated from knudsen effusion weight loss | 0.00057
323.2 K, Crystal, Calculated from knudsen effusion weight loss | 0.0007
325.15 K, Crystal, Calculated from knudsen effusion weight loss | 0.000857
327.33 K, Crystal, Calculated from knudsen effusion weight loss | 0.0011
329.21 K, Crystal, Calculated from knudsen effusion weight loss | 0.00133
336.49 K, Crystal, Closed cell (Static) method | 0.00284
338.49 K, Crystal, Closed cell (Static) method | 0.00343
340.48 K, Crystal, Closed cell (Static) method | 0.00423
342.48 K, Crystal, Closed cell (Static) method | 0.00513
344.42 K, Crystal, Closed cell (Static) method | 0.00612
344.43 K, Metastable liquid, Closed cell (Static) method | 0.01029
346.35 K, Crystal, Closed cell (Static) method | 0.00743
346.53 K, Metastable liquid, Closed cell (Static) method | 0.012
348.28 K, Metastable liquid, Closed cell (Static) method | 0.01367
348.35 K, Crystal, Closed cell (Static) method | 0.00894
350.35 K, Crystal, Closed cell (Static) method | 0.01085
350.37 K, Metastable liquid, Closed cell (Static) method | 0.01582
352.36 K, Metastable liquid, Closed cell (Static) method | 0.01813
352.41 K, Crystal, Closed cell (Static) method | 0.01316
354.35 K, Metastable liquid, Closed cell (Static) method | 0.02079
354.4 K, Crystal, Closed cell (Static) method | 0.01584
356.31 K, Metastable liquid, Closed cell (Static) method | 0.02367
358.2 K, Metastable liquid, Closed cell (Static) method | 0.02689
360.17 K, Metastable liquid, Closed cell (Static) method | 0.03085
362.2 K, Metastable liquid, Closed cell (Static) method | 0.03491
364.19 K, Metastable liquid, Closed cell (Static) method | 0.04045
366.13 K, Metastable liquid, Closed cell (Static) method | 0.04605
368.11 K, Closed cell (Static) method, Liquid | 0.05207
370.06 K, Closed cell (Static) method, Liquid | 0.05865
372.03 K, Closed cell (Static) method, Liquid | 0.06591
374.17 K, Closed cell (Static) method, Liquid | 0.07545
376.12 K, Closed cell (Static) method, Liquid | 0.08537
378.03 K, Closed cell (Static) method, Liquid | 0.09595
380 K, Closed cell (Static) method, Liquid | 0.1071
381.93 K, Closed cell (Static) method, Liquid | 0.119
383.93 K, Closed cell (Static) method, Liquid | 0.1348
385.88 K, Closed cell (Static) method, Liquid | 0.1513
387.86 K, Closed cell (Static) method, Liquid | 0.1682
389.84 K, Closed cell (Static) method, Liquid | 0.1876
391.79 K, Closed cell (Static) method, Liquid | 0.2094
393.77 K, Closed cell (Static) method, Liquid | 0.2339
395.73 K, Closed cell (Static) method, Liquid | 0.259
397.68 K, Closed cell (Static) method, Liquid | 0.284
399.69 K, Closed cell (Static) method, Liquid | 0.3164
401.66 K, Closed cell (Static) method, Liquid | 0.3517

Details | Normal melting temperature [°C]
[1], Crystal | 92.92

Details | Molar enthalpy of transition or fusion [kcal/mol]
[2] | 4.97
